Results published in ChEMBL document CHEMBL3714710, “Diaminopyrimidines as P2X3 and P2X2/3 modulators” (2010).
Calls of active or inactive are those of the source. The calls are words filed in the database; no cut-off is given here.

Target: T1, P2X purinoceptor 3 (Rattus norvegicus) (UniProt P49654)
T1 sequence (whole entry): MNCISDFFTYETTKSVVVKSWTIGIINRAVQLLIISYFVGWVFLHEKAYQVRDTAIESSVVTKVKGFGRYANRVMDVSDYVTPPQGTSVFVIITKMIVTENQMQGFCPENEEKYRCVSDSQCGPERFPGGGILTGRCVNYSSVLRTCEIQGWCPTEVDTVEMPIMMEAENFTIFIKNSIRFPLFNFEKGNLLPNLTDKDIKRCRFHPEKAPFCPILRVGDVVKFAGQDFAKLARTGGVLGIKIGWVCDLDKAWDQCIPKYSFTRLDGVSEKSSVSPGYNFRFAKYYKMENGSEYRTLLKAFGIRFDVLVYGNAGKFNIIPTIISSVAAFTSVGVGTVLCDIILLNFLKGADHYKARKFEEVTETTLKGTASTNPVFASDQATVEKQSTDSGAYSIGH
Experiment: Antagonist activity against rat P2X3 receptor expressed in CHOK1 cells assessed as inhibition of alpha,beta-meATP-induced calcium response incubated for 20 mins by Fluo-3AM dye based FLIPR assay
Assay type: functional, cell-based
Details: CHO-K1

Row | Structure (SMILES) | inhibition
1 | CC(C)c1cc2ncccc2cc1Oc1cnc(NC(CO)CO)nc1N | Active
2 | Cc1nccc2cc(Oc3cnc(N)nc3N)c(C(C)C)cc12 | Active
3 | Cc1cccc2cc(C(C)C)c(Oc3cnc(N)nc3N)cc12 | Active
4 | Nc1ncc(Oc2cc3ccccc3cc2I)c(N)n1 | Active
5 | CC(C)c1cc2cccnc2cc1Oc1cnc(N)nc1N | Active
6 | Cc1cccc2cc(Oc3cnc(N)nc3N)c(C(C)C)cc12 | Active
7 | COc1ccc2cc(Oc3cnc(N)nc3N)c(C(C)C)cc2c1 | Active

Now from value to compound:

Row | inhibition | Structure (SMILES)
8 | Active | CC(C)c1nc2ccccc2cc1Oc1cnc(N)nc1N
9 | Active | Cc1cccc2cc(Oc3cnc(N)nc3N)c(C(C)C)nc12
10 | Active | Cc1ccc2nc(C(C)C)c(Oc3cnc(N)nc3N)cc2c1
